Values joined by “and” are separate entries in the source; they are usually repeats but may differ in a detail not shown here. Identical values can stand only once. Inconclusive results and toxic doses are left out. How the source made its calls: active means survival T/C of 150% or more; inactive means T/C below 125% in these data. *1 amine or outer side, *2 acyl side, *3 side chain or, on linkers, in order; H or OH if unused. Where a SMILES comes first, the peptide text is derived from it. Bridges are numbered along the chain shown (N, C = ends). Roman numbers before positions name the chains, in order. [ ]: non-standard residue; d: D form. Actinocin(9to1) = Cc1c2oc3c(C)ccc(C(=O)[*:1])c3nc-2c(C(=O)[*:2])c(N)c1=O; NMeV = CN[CH](C(=O)O)C(C)C; Aze = O=C(O)[CH]1CCN1; Sar = CNCC(=O)O
Test system: CD2F1 mice, ip Colon 26 adenocarcinoma, median survival T/C
Assay: NCI In Vivo Anticancer Drug Screen. Data for tumor model Colon 26 Adenocarcinoma (intraperitoneal) in CD2F1 (CDF1) mice
Settings: endpoint: median survival time, higher = longer survival
Procedure: The antitumor activity of compounds was measured in mice bearing transplantable tumors. Survival or tumor size were measured and the results are expressed as the measurement made in the treated group (T) divided by the measurement made in the vehicle treated control group (C). The tumor model used in this assay is Colon 26 Adenocarcinoma (intraperitoneal) in CD2F1 (CDF1) mice

[1] = dose: 25.0 mg/kg/injection, schedule: Q04DX003 (ip), vehicle: Klucel (hydroxypropylcellulose) (HPC)
[2] = dose: 12.5 mg/kg/injection, schedule: Q04DX003 (ip), vehicle: saline with Tween-80

Measured: T/C

Cc1ccc(C(=O)[O][Hg][CH2]C2COC([CH2][Hg][O]C(=O)c3ccc(C)cc3)CO2)cc1 (stereo not given)
inactive: dose: 12.5 mg/kg/injection, schedule: Q04DX003 (ip), vehicle: Klucel (hydroxypropylcellulose) (HPC) 104 % of control | [1] 92 % of control

C=CC(=O)N1CN(C(=O)C=C)CN(C(=O)C=C)C1
inactive: dose: 3.13 mg/kg/injection, schedule: Q04DX003 (ip), vehicle: saline with Tween-80 115 % of control | dose: 6.25 mg/kg/injection, schedule: Q04DX003 (ip), vehicle: saline with Tween-80 110 % of control | [2] 106 % of control | dose: 12.5 mg/kg/injection, schedule: Q04DX003 (ip), vehicle: saline 122 % of control

CC1(CO)C(O)CCC2(C)C1CCC1CC3CC12CCC3(O)CO (stereo not given)
inactive: dose: 50.0 mg/kg/injection, schedule: Q04DX003 (oral), vehicle: saline with Tween-80 105 % of control and 106 % of control and 113 % of control | dose: 100.0 mg/kg/injection, schedule: Q04DX003 (oral), vehicle: saline with Tween-80 101 % of control and 119 % of control and 100 % of control | dose: 600.0 mg/kg/injection, schedule: Q04DX003 (ip), vehicle: saline with Tween-80 100 % of control | dose: 1600.0 mg/kg/injection, schedule: Q04DX003 (oral), vehicle: saline with Tween-80 106 % of control
active: dose: 25.0 mg/kg/injection, schedule: Q01DX009 (ip), vehicle: saline with Tween-80 167 % of control

[I][Hg][CH2]C1OCCOC1[CH2][Hg][I] (stereo not given)
inactive: [1] 103 % of control | dose: 50.0 mg/kg/injection, schedule: Q04DX003 (ip), vehicle: Klucel (hydroxypropylcellulose) (HPC) 100 % of control

Nc1ncnc2c1ncn2C1OC(CO)C(O)C1O (stereo not given)
inactive: dose: 50.0 mg/kg/injection, schedule: Q04DX002 (ip), vehicle: suspension in saline 101 % of control | dose: 64.0 mg/kg/injection, schedule: Q04DX002 (ip), vehicle: Klucel (hydroxypropylcellulose) (HPC) 90 % of control | dose: 100.0 mg/kg/injection, schedule: Q04DX002 (ip), vehicle: suspension in saline 113 % of control | dose: 128.0 mg/kg/injection, schedule: Q04DX002 (ip), vehicle: Klucel (hydroxypropylcellulose) (HPC) 93 % of control | dose: 200.0 mg/kg/injection, schedule: Q04DX002 (ip), vehicle: suspension in saline 108 % of control | dose: 256.0 mg/kg/injection, schedule: Q04DX002 (ip), vehicle: Klucel (hydroxypropylcellulose) (HPC) 91 % of control | dose: 400.0 mg/kg/injection, schedule: Q04DX002 (ip), vehicle: suspension in saline 107 % of control | dose: 800.0 mg/kg/injection, schedule: Q04DX002 (ip), vehicle: suspension in saline 122 % of control | dose: 1024.0 mg/kg/injection, schedule: Q04DX002 (ip), vehicle: Klucel (hydroxypropylcellulose) (HPC) 98 % of control

CC(C)NC(=O)OCc1c(COC(=O)NC(C)C)c(-c2ccc(Cl)c(Cl)c2)n2c1CCC2
active: dose: 2.5 mg/kg/injection, schedule: Q01DX009 (ip), vehicle: distilled water + Tween-80 173 % of control | dose: 5.0 mg/kg/injection, schedule: Q01DX009 (ip), vehicle: distilled water + Tween-80 162 % of control | dose: 10.0 mg/kg/injection, schedule: Q01DX009 (ip), vehicle: distilled water + Tween-80 232 % of control | dose: 20.0 mg/kg/injection, schedule: Q01DX009 (ip), vehicle: distilled water + Tween-80 289 % of control | dose: 40.0 mg/kg/injection, schedule: Q01DX009 (ip), vehicle: distilled water + Tween-80 163 % of control

CC(C)CCCCCCCCCCCCC(=O)NCC(=O)NC1C(O)C(O)C(Nc2ncnc3nc[nH]c23)OC1C(O)CO (stereo not given)
inactive: dose: 0.5 mg/kg/injection, schedule: Q04DX003 (ip), vehicle: Klucel (hydroxypropylcellulose) (HPC) 91 % of control | dose: 1.0 mg/kg/injection, schedule: Q04DX003 (ip), vehicle: Klucel (hydroxypropylcellulose) (HPC) 97 % of control | dose: 2.0 mg/kg/injection, schedule: Q04DX003 (ip), vehicle: Klucel (hydroxypropylcellulose) (HPC) 101 % of control | dose: 4.0 mg/kg/injection, schedule: Q04DX003 (ip), vehicle: Klucel (hydroxypropylcellulose) (HPC) 103 % of control

C=CCCC(=O)CCCC(=O)O[C@@H]1[C@@H]2[C@H](CC1(C)C)[C@H](O)[C@@]13O[C@@H]1[C@H](O)[C@@]1(CO1)[C@@]23C
inactive: dose: 6.25 micrograms/kg/injection, schedule: Q04DX002 (ip), vehicle: Klucel (hydroxypropylcellulose) (HPC) 123 % of control | dose: 25.0 micrograms/kg/injection, schedule: Q04DX002 (ip), vehicle: Klucel (hydroxypropylcellulose) (HPC) 119 % of control and 120 % of control | dose: 50.0 micrograms/kg/injection, schedule: Q04DX002 (ip), vehicle: Klucel (hydroxypropylcellulose) (HPC) 102 % of control and 98 % of control | dose: 100.0 micrograms/kg/injection, schedule: Q04DX002 (ip), vehicle: Klucel (hydroxypropylcellulose) (HPC) 117 % of control | dose: 200.0 micrograms/kg/injection, schedule: Q04DX002 (ip), vehicle: Klucel (hydroxypropylcellulose) (HPC) 120 % of control and 88 % of control | dose: 400.0 micrograms/kg/injection, schedule: Q04DX002 (ip), vehicle: Klucel (hydroxypropylcellulose) (HPC) 100 % of control

O=C1c2ccccc2C(=O)c2c(NCCNCCNCCO)ccc(NCCNCCNCCO)c21
inactive: dose: 8.0 mg/kg/injection, schedule: Q01DX009 (ip), vehicle: acid diluted with saline 102 % of control | dose: 16.0 mg/kg/injection, schedule: Q01DX009 (ip), vehicle: acid diluted with saline 97 % of control | dose: 32.0 mg/kg/injection, schedule: Q01DX009 (ip), vehicle: acid diluted with saline 107 % of control | dose: 64.0 mg/kg/injection, schedule: Q01DX009 (ip), vehicle: acid diluted with saline 103 % of control | dose: 128.0 mg/kg/injection, schedule: Q01DX009 (ip), vehicle: acid diluted with saline 87 % of control

CCCCCCCCCCCCCCCCS(=O)CC(O)COC(=O)c1ccc(C(=O)OCC(O)CS(=O)CCCCCCCCCCCCCCCC)cc1 (stereo not given)
inactive: dose: 12.5 mg/kg/injection, schedule: Q04DX002 (ip), vehicle: saline + alcohol 109 % of control | dose: 25.0 mg/kg/injection, schedule: Q04DX002 (ip), vehicle: saline + alcohol 100 % of control | dose: 50.0 mg/kg/injection, schedule: Q04DX002 (ip), vehicle: saline + alcohol 91 % of control | dose: 100.0 mg/kg/injection, schedule: Q04DX002 (ip), vehicle: saline + alcohol 91 % of control

COC(=O)Nc1cccc(-c2nc3ccc(NC(=O)OC)cc3c(=O)n2-c2ccccc2)c1
active: dose: 64.0 mg/kg/injection, schedule: Q04DX003 (ip), vehicle: Klucel (hydroxypropylcellulose) (HPC) 171 % of control

CSC1SCC2C(=O)N(C)C(C(C)C)C(=O)OCC(NC(=O)c3cnc4ccccc4n3)C(=O)NC(C)C(=O)N(C)C1C(=O)N(C)C(C(C)C)C(=O)OCC(NC(=O)c1cnc3ccccc3n1)C(=O)NC(C)C(=O)N2C (stereo not given)
inactive: dose: 25.0 micrograms/kg/injection, schedule: Q01DX004 (ip), vehicle: saline sonified 87 % of control | dose: 100.0 micrograms/kg/injection, schedule: Q01DX004 (ip), vehicle: saline sonified 86 % of control | dose: 100.0 micrograms/kg/injection, schedule: Q03DX002 (ip), vehicle: saline sonified 94 % of control | dose: 150.0 micrograms/kg/injection, schedule: Q03DX002 (ip), vehicle: saline sonified 90 % of control

Cc1c2oc3c(C)ccc(C(=O)NC4C(=O)NC(C(C)C)C(=O)N5CCC5C(=O)N(C)CC(=O)N(C)C(C(C)C)C(=O)OC4C)c3nc-2c(C(=O)NC2C(=O)NC(C(C)C)C(=O)N3CCC3C(=O)N(C)CC(=O)N(C)C(C(C)C)C(=O)OC2C)c(N)c1=O (stereo not given) (I: TV[Aze][Sar][NMeV] / II: TV[Aze][Sar][NMeV]; ester I:1-I:C, II:1-II:C; linker I:N-II:N via Actinocin(9to1); configuration not given here)
inactive: dose: 270.0 micrograms/kg/injection, schedule: Q04DX003 (ip), vehicle: saline + alcohol 114 % of control

C=CCNc1ccc(C)cc1
inactive: [2] 104 % of control | dose: 25.0 mg/kg/injection, schedule: Q04DX003 (ip), vehicle: saline with Tween-80 104 % of control | dose: 50.0 mg/kg/injection, schedule: Q04DX003 (ip), vehicle: saline with Tween-80 96 % of control | dose: 100.0 mg/kg/injection, schedule: Q04DX003 (ip), vehicle: saline with Tween-80 97 % of control

CNc1nc2c(N)ncnc2n1C1OC(CO)C(O)C1O (stereo not given)
inactive: dose: 0.78 mg/kg/injection, schedule: Q04DX002 (ip), vehicle: saline 92 % of control | dose: 1.56 mg/kg/injection, schedule: Q04DX002 (ip), vehicle: saline 93 % of control | dose: 3.13 mg/kg/injection, schedule: Q04DX002 (ip), vehicle: saline 92 % of control | dose: 6.25 mg/kg/injection, schedule: Q04DX002 (ip), vehicle: saline 96 % of control | dose: 12.5 mg/kg/injection, schedule: Q04DX002 (ip), vehicle: saline 102 % of control | dose: 25.0 mg/kg/injection, schedule: Q04DX002 (ip), vehicle: saline 96 % of control

COc1cccc2c1C(=O)c1c(O)c3c(c(O)c1C2=O)C[C@@](O)(C(=O)CO)C[C@@H]3OC1CC(OC(C)=O)C(OC(C)=O)C(C)O1 (stereo not given in full)
active: dose: 300.0 mg/kg/injection, schedule: Q07DX002 (sc), vehicle: distilled water + Tween-80 150 % of control
inactive: dose: 58.0 mg/kg/injection, schedule: Q07DX002 (sc), vehicle: distilled water + Tween-80 109 % of control | dose: 101.0 mg/kg/injection, schedule: Q07DX002 (sc), vehicle: distilled water + Tween-80 120 % of control
